Entries after “also recorded” stand apart in the source; their conditions may differ.

The results in this text go back to US20160008339A1, “PSORALEN DERIVATIVES FOR PREVENTING OR TREATING HEART FAILURE OR CARDIAC HYPERTROPHY” (MAX-DELBRUCK-CENTRUM FUR MOLEKULARE MEDIZIN, priority 2012, published 2016).

The subject of experiment [1] is AKAP-Lbc mediated RhoA/SRF activation. Description: Dual luciferase SRE reporter assay, AKAP-Lbc transfected HEK293. It is filed as cell-based. The conditions noted are these: Homo sapiens. As for the experimental part: (§1) The experiments were performed following the protocol of the dual luciferase reporter assay (Promega). HEK293 cells were transfected with plasmid DNAs of two luciferases and plasmids of different exchange factors. A serum response element was located ahead of the coding luciferase sequences. Activated RhoA activates the serum response element, which enables the expression of the firefly luciferase. After 4 hours the cells were treated with compound 31413. After additional twenty four hours the cells were lysed in passive lysis buffer (Promega). The luciferase activity in the cell lysate was determined by measurement of the luminescence signal according to above mentioned protocol with 96 well plate (OptiPlate 96) and LarII- and. Stop-&Glow-substrate solutions in a micro plate reader
(§2) To rule out that other RhoGEF are influenced by the inventive compounds in their activity, HEK293 cells were transfected with different RhoGEF constructs. Additionally, as normalization control, two luciferase plasmids were added, which code for a serum response element (SRE) coupled firefly luciferase and for a Renilla luciferase, respectively. […] The luciferase activities were determined in the lysate. […] Further, the luciferase activity of the indicated RhoGEFs was analysed in absence or presence of 50 μmol/L compound 31413 (FIG. 4 B).
In general terms: Reporter assays use an easily measured gene product as a stand-in for the process of interest.

Experiment [2] relates to different RhoGEF constructs. Briefly: Dual luciferase SRE reporter assay, other RhoGEF constructs in HEK293. Conditions: 50 μmol/L, vs DMSO treated control. It is filed as cell-based, human. How it is done: as §1, §2
The test system of experiment [3] is GαqRC and p63RhoGEF (Gαq coupled activation of RhoA). Description: Rhotekin-based precipitation of RhoA-GTP, HEK293 transfected with GαqRC / p63RhoGEF. In kind it is cell-based, human. Conditions: 50 μmol/L. How it is done: (§3) HEK293 cells were seeded in 6-well plates. One day later the cells were transfected with the following plasmid DNAs:
(§4) After additional 24 hours the cells were treated with compound 31413 (50 μmol/L) or DMSO for 30 min at 37° C. Subsequently, the cells were lysed in precipitation buffer (50 mM Tris pH 7.4, 150 mmol/L NaCl, 4 mmol/L MgCl2; 10% v/v glycerol, 1% octylphenoxypolyethoxyethanol [IPEGAL]) and centrifugated 20000 g for two minutes to remove cell debris. 40 μl of the lysate were taken for the determination of the total RhoA content. The residual lysate was incubated with 40 μl GSH-sepharose coupled GST-rhotekin for one hour at 4° C. Then, the GSH-sepharose was washed twice with precipitation buffer, enriched with SDS-PAGE loading buffer and heated 5 min at 90° C. […] The ratio between total RhoA and Rho-GTP was densitometrically determined.
(§5) The activation state of RhoA was determined with a Rho binding region of the rhotekin protein, a Rho effector, immobilised on a sepharose bead in the presence and absence of compound 31413. […]
(§6) GTP-bound RhoA was detected by rhotekin precipitation (FIG. 3). The precipitation of RhoA from transfected HEK293 cells was performed with a rhotekin sepharose, and analysed with SDS-PAGE and immunoblotting with a RhoA specific antibody. […] The precipitated RhoA-GTP was separated with SDS-PAGE, blotted and detected with a specific anti-RhoA antibody.

In experiment [4] the test system is primary neonatal cardiomyocytes (α-sceletal muscle actin mRNA). Briefly: Hypertrophy marker α-actin 1 mRNA by quantitative real-time PCR. In kind it is cell-based, rat. As for the experimental part: Primary neonatal cardiomyocytes were prepared as described above. The cardiomyocytes were stimulated for 24 or 48 hours with 100 μmol/L phenylephrin (PE) or 10 μmol/L isoproterenol (ISO) in absence or presence of 10 μmol/L or 50 μmol/L of compound 31413.
After 24 hours or 48 hour of stimulation, the medium was removed, and every well was washed with 2 ml phosphate buffered saline and fixed with 200 μl TRIzol. The cells were removed from each well and transferred into a 1.5 ml Eppendorf tube, respectively.
For cell breakdown, 40 μl chloroform was added to each Eppendorf tube. The broken cells were centrifuged for 15 min at 1400 g and 4° C. The supernatant containing RNA/DNA was taken, mixed with 100 μl isopropanol and centrifugated for 20 min at 1500 g and 4° C. The supernatant was discarded and the pellet was resuspended in 500 μL ethanol. The RNA from the pellet was purified by chromatography. The concentration of the RNA was determined by NANODROP.
The quantification of the hypertrophy marker α-sceletal muscle actin (α-actin 1) mRNA was performed by quantitative real-time PCR. First, the RNA was transcribed to a cDNA with a SuperScript™III First-Strand Synthesis SuperMix (Invitrogen) and random hexamer primers. The cDNA was amplified in a PCR reaction in an Applied Biosystem StepOne™ Real-Time PCR System. Glycerinealdehydephosphate dehydrogenase and NTC (no template control) was used as controls. All samples were triplicates. The following primers have been used: […]

The test system of experiment [5] is Gα12 coupled and AKAP-Lbc mediated activation of RhoA. Briefly: Rhotekin-based precipitation of RhoA-GTP, HEK293 transfected with Gα12QL / AKAP-Lbc. In kind it is cell-based, human. The conditions noted are these: 50 μmol/L, 30 min, vs DMSO. How it is done: as §3, §4, §5, §6
The target of experiment [6] is T1, AKAP-Lbc (guanine nucleotide exchange on RhoA) (Homo sapiens, UniProt Q12802).
T1 sequence (Q12802 1994-2333): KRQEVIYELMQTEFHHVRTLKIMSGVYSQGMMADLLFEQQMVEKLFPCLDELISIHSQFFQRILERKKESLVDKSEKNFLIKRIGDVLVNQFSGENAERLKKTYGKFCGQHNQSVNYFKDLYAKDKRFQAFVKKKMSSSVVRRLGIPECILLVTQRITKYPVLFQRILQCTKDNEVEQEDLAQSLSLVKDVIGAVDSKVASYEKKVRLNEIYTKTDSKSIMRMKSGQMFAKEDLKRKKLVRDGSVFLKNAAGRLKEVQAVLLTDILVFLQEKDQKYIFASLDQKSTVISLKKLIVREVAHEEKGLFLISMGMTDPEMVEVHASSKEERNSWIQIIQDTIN
Description: RhoGEF nucleotide exchange assay (GDP against mGTP on RhoA). The conditions noted are these: IC50 (fifty percent inhibition of nucleotide exchange), 15 min.
Description: Following the protocol of the RhoGEF exchange assay Biochem Kit, a nucleotide exchange experiment for AKAP-Lbc and RhoA was established. The fluorescence labelled nucleotide analogues 2′(3′)-O—(N-methylanthraniloyl)-guanosine diphosphate and 2′(3′)-O—(N-methylanthraniloyl)-guanosine triphosphate, hereinafter referred to mGDP and mGTP, were used for tracing the nucleotide exchange.
25 μl depletion buffer (100 mmol/L sodium phosphate, pH 7.4, 5 mmol/L EDTA, 200 mmol/L ammonium sulfate) with an excess of mGDP (5 mmol/L) were added to 200 μg recombinant his6-RhoA (25 μl) and incubated one hour at room temperature. Then, magnesium chloride (MgCl2) was added to a final concentration of 10 mmol/L.
By centrifugation with Vivaspin® 500 concentrator vials (MWCO 5 kDa, 10 min, 10000 rpm) and buffer (100 mmol/L sodium phosphate, pH 7.4, 100 mmol/L NaCl, protease inhibitor [cOmplete, Mini, EDTA-free protease inhibitor cocktaile]) RhoA-mGDP was washed twice and reduced to 100 μl. 1 μmol/L RhoA-mGDP and 0.5 μmol/L AKAP-Lbc DHPH in nucleotide exchange buffer (40 mmol/L Tris pH 7.5; 100 mmol/L NaCl; 20 mmol/L MgCl2, 100 μg/ml BSA) were used for the nucleotide exchange. The fluorescence measurements were performed in a micro plate reader (TECAN Safire) over a period of 15 min, whereby the fluorophore of mGDP was excited at 360 nm and the resulting fluorescence signal was determined at 440 nm.
At a concentration relation of 2 μmol/L protein and 1 μmol/L mGTP, an ideal fluorescence signal-to-noise-ratio was found in the nucleotide exchange buffer (40 mM Tris pH 7.5, 100 mmol/L NaCl, 20 mmol/L MgCl2, 100 μg/ml BSA). The fluorescence signal for mGTP was measured analogous to mGDP (λexc=360 nm; λem=440 nm) in a micro plate reader (TECAN Safire) over a period of 15 min. The experiment was performed in a 384-well plate.

Consider `COc1ccc(-c2coc3cc4oc(=O)c(C)c(C)c4cc23)cc1` [Compound 31413, 3-(4-methoxyphenyl)-5,6-dimethyl-furo[3,2-g]chromen-7-one], for which the half-inhibitory concentration (IC50) in experiment [1] is approximately 25 µM; in experiment [6], 25.9 µM. Further, the “luciferase activity of the indicated RhoGEFs” value in experiment [2] is “None of the investigated GEF shows a significant reduction”. The “precipitated amount of RhoA-GTP” value in experiment [3] was “no difference”. The “α-actin 1 mRNA amount” value in experiment [4] (PE 100 μmol/L 24 h, compound 10 or 50 μmol/L) is recorded as “concentration dependent decrease”. The “relative amount of α-actin 1 mRNA” value in experiment [4] (without PE stimulation) was “no significant change”. For the same compound, the “amount of activated GTP-bound RhoA precipitated” value in experiment [5] was “significantly decreased amount of activated GTP-bound RhoA; also recorded: less RhoA-GTP was precipitated”.

By IC50 is commonly meant the concentration needed to halve the response being measured. Higher therefore signals weaker potency.
